Assay results as given in paper PMC7116137 (Molecular pharmacology, 2020).

Assays:
[1] = target: complex of dopamine D1-receptor and wild-type A1R (Homo sapiens, UniProt P21728+P30542); experiment: BRET between D1R-NLuc and eYFP-tagged A1-receptor in HEK293 cells; format: cell-based; details: incubation with ligand 10 μM, response estimated at saturation
wild-type A1R = target: T1, wild-type A1R (Homo sapiens, UniProt P30542); experiment: [35S]GTPγS binding to membranes of HEK293 cells; format: biochemical; details: agonist-stimulated, curve fit; wt A1R
T1 sequence (P30542 1-326): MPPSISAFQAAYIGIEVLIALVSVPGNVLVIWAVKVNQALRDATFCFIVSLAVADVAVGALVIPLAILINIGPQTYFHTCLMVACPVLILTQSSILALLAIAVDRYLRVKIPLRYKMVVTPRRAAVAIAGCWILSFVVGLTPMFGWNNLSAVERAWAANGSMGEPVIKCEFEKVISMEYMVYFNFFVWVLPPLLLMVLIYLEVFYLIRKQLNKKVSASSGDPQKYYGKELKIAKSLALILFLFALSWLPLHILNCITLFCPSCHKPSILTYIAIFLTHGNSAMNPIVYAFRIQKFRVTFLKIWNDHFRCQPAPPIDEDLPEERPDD

complex of dopamine D1-receptor and wild-type A1R, sequence (P21728 whole entry, one chain of several): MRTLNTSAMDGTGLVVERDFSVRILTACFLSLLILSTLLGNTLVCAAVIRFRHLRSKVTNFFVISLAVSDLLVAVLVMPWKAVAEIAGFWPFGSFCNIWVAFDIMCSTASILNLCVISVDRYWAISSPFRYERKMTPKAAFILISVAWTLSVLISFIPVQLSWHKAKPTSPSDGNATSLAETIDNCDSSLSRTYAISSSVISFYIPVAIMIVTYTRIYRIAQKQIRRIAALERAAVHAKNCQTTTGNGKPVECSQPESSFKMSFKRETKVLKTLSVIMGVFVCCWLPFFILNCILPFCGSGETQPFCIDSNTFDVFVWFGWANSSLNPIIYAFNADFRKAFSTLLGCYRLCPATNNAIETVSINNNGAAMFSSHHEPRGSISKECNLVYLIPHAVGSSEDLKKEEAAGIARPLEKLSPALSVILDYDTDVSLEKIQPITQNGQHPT

Compound: OC[C@H]1O[C@@H](n2cnc3c(NC4CCCC4)ncnc32)[C@H](O)[C@@H]1O [CPA, N6-cyclopentyladenosine]
- Maximum BRET signal [1]: 218 ± 64 milli BRET
- maximal [35S]GTPγS binding (95% confidence interval) (wild-type A1R): 91.5 to 101.3 fmol/mg
